Source: ChEMBL document CHEMBL2146404, “O-Hydroxyl- or o-amino benzylamine-tacrine hybrids: multifunctional biometals chelators, antioxidants, and inhibitors of cholinesterase activity and amyloid-β aggregation” (Bioorg Med Chem, 2012)
Active and inactive are the calls of the source. No cut-off for these calls is given here.

Columns and labels:
Acetylcholinesterase [1] = target: Acetylcholinesterase (Electrophorus electricus, UniProt O42275)
Description: Inhibition of electric eel AChE using acetylthiocholine chloride as substrate preincubated for 15 mins by Ellman's method

[2] = Inhibition of […]-pretreated amyloid beta (1 to 42) self-aggregation at 20 uM after 48 hrs by thioflavin T based fluorometric assay
Cholinesterase = Cholinesterase (Equus caballus, UniProt P81908)
Description: Inhibition of equine serum BuChE using butyrylthiocholine chloride as substrate preincubated for 15 mins by Ellman's method

Acetylcholinesterase [3] = target: Acetylcholinesterase (Homo sapiens, UniProt P22303); test: Inhibition of human recombinant AChE using acetylthiocholine chloride as substrate preincubated for 15 mins by Ellman's method
[4] = Metal chelating activity of the compound assessed as zinc ion complex formation at 40 uM after 30 mins by UV-vis spectrometry; assay type: functional
[5] = Metal chelating activity of the compound assessed as ferrous ion complex formation at 40 uM after 30 mins by UV-vis spectrometry; assay type: functional
[6] = Metal chelating activity of the compound assessed as cupric ion complex formation at 40 uM after 30 mins by UV-vis spectrometry; assay type: functional

Sequence of Acetylcholinesterase (Homo sapiens, UniProt P22303) (P22303 whole entry): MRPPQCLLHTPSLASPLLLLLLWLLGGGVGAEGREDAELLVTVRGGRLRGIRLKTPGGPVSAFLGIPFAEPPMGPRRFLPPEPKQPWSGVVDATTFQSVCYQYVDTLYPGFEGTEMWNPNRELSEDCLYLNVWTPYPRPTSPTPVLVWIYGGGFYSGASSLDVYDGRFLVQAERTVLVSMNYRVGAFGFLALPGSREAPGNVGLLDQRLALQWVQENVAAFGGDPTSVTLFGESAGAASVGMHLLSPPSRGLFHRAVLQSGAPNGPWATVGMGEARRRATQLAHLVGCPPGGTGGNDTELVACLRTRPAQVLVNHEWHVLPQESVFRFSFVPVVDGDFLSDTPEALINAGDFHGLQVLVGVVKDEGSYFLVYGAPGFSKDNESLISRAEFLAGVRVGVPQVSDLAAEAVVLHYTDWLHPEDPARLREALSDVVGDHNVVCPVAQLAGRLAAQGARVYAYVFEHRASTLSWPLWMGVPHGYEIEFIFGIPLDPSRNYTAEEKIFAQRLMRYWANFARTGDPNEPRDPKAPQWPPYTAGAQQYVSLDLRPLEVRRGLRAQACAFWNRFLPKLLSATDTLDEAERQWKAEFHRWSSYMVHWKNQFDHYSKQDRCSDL
Sequence of Acetylcholinesterase (Electrophorus electricus, UniProt O42275) (O42275 whole entry): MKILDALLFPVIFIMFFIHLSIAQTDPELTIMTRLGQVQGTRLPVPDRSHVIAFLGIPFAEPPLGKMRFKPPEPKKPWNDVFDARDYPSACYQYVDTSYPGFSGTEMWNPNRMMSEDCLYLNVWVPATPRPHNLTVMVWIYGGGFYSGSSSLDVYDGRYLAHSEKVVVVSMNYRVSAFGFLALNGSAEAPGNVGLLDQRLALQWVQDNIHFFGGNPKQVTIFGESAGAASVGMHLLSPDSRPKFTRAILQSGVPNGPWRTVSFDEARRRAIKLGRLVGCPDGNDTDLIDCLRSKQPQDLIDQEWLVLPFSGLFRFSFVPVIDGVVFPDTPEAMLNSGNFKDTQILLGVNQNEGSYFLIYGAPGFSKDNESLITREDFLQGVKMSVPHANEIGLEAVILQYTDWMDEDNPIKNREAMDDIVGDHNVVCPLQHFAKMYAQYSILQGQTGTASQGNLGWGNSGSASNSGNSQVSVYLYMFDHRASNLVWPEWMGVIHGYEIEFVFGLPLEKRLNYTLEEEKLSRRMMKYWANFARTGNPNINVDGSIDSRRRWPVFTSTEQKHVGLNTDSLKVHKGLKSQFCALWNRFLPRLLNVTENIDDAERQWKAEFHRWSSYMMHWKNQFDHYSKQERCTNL
Sequence of Cholinesterase (P81908 whole entry): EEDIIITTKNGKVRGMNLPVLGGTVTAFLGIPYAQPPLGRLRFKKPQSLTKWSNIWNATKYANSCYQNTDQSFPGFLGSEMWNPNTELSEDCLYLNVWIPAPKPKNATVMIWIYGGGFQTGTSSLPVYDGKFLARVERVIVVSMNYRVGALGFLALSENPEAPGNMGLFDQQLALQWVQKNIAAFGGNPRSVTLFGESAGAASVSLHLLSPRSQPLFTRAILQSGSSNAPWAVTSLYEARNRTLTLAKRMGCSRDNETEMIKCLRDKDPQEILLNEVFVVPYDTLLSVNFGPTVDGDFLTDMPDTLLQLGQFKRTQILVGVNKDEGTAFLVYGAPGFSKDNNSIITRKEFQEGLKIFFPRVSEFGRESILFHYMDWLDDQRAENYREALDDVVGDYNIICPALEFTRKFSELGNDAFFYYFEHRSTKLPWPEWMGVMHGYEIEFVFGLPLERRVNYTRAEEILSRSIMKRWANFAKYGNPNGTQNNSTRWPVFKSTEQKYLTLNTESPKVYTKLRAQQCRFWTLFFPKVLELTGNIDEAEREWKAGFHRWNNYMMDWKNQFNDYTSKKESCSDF

CN(C)c1ccccc1CNCCCCCCCNc1c2c(nc3ccccc13)CCCC2
IC50 (Acetylcholinesterase [1]): 3.5 nM
inhibition [2]: 30.7%
IC50 (Cholinesterase): 2.92 nM
IC50 (Acetylcholinesterase [3]): 5.18 nM

CN(C)c1ccccc1CNCCCCCCCCNc1c2c(nc3ccccc13)CCCC2
IC50 (Acetylcholinesterase [1]): 1.55 nM
inhibition [2]: 38.6%
IC50 (Cholinesterase): 2.11 nM
IC50 (Acetylcholinesterase [3]): 4.04 nM

Oc1ccccc1CNCCCCCCCCNc1c2c(nc3ccccc13)CCCC2
IC50 (Acetylcholinesterase [1]): 6.17 nM
IC50 (Cholinesterase): 6.25 nM

Oc1ccccc1CNCCCNc1c2c(nc3cc(Cl)ccc13)CCCC2
IC50 (Acetylcholinesterase [1]): 43.3 nM
IC50 (Cholinesterase): 76.5 nM

Oc1ccccc1CNCCCCCCNc1c2c(nc3cc(Cl)ccc13)CCCC2
IC50 (Acetylcholinesterase [1]): 43 nM
IC50 (Cholinesterase): 11.1 nM

Oc1ccccc1CNCCCCCCCNc1c2c(nc3ccccc13)CCCC2
IC50 (Acetylcholinesterase [1]): 9.55 nM
IC50 (Cholinesterase): 5.84 nM

Oc1ccccc1CNCCCNc1c2c(nc3ccccc13)CCCC2
IC50 (Acetylcholinesterase [1]): 131 nM
IC50 (Cholinesterase): 46.1 nM

Oc1ccccc1CNCCCCNc1c2c(nc3ccccc13)CCCC2
IC50 (Acetylcholinesterase [1]): 252 nM
IC50 (Cholinesterase): 20.3 nM

CCN(CC)c1ccccc1CNCCCCCCCCNc1c2c(nc3ccccc13)CCCC2
IC50 (Acetylcholinesterase [1]): 1.36 nM
inhibition [2]: 40.1%
IC50 (Cholinesterase): 2.82 nM

Oc1ccccc1CNCCCCCCCCCNc1c2c(nc3ccccc13)CCCC2
IC50 (Acetylcholinesterase [1]): 7.52 nM
IC50 (Cholinesterase): 8.2 nM

Oc1ccccc1CNCCCCCCCCCNc1c2c(nc3cc(Cl)ccc13)CCCC2
IC50 (Acetylcholinesterase [1]): 7.78 nM
IC50 (Cholinesterase): 23 nM

Oc1ccccc1CNCCCCCCCCNc1c2c(nc3cc(Cl)ccc13)CCCC2
IC50 (Acetylcholinesterase [1]): 6.77 nM
inhibition [2]: 25.8%
IC50 (Cholinesterase): 18.5 nM

c1ccc(CNCCCCCCCCNc2c3c(nc4ccccc24)CCCC3)nc1
IC50 (Acetylcholinesterase [1]): 2.95 nM
IC50 (Cholinesterase): 2.99 nM

Oc1ccccc1CNCCNc1c2c(nc3cc(Cl)ccc13)CCCC2
IC50 (Acetylcholinesterase [1]): 22.5 nM
IC50 (Cholinesterase): 9.97 nM

Oc1ccccc1CNCCCCNc1c2c(nc3cc(Cl)ccc13)CCCC2
IC50 (Acetylcholinesterase [1]): 125 nM
IC50 (Cholinesterase): 28.1 nM

Oc1ccccc1CNCCCCCCNc1c2c(nc3ccccc13)CCCC2
IC50 (Acetylcholinesterase [1]): 25.1 nM
IC50 (Cholinesterase): 9.65 nM

CN(C)c1ccccc1CNCCCCCCCCCNc1c2c(nc3ccccc13)CCCC2
Activity [4]: Active
Activity [5]: Active
Activity [6]: Active
IC50 (Acetylcholinesterase [1]): 0.55 nM
inhibition [2]: 39.4%
IC50 (Cholinesterase): 2.65 nM
IC50 (Acetylcholinesterase [3]): 3.52 nM

Oc1ccccc1CNCCNc1c2c(nc3ccccc13)CCCC2
IC50 (Acetylcholinesterase [1]): 146 nM
IC50 (Cholinesterase): 10 nM

Oc1ccccc1CNCCCCCCCNc1c2c(nc3cc(Cl)ccc13)CCCC2
IC50 (Acetylcholinesterase [1]): 10.5 nM
IC50 (Cholinesterase): 17.8 nM
